Reference: patent publication US4735792A, “Radioiodinated maleimides and use as agents for radiolabeling antibodies” (The United States of America as represented by the United …, priority 1987, dated 1988)
Where two headings read alike, the source gives them in different places.

How the values were obtained:
[1] = system: bovine albumin; test: Binding to bovine albumin (activity remaining in aqueous portion after ether extraction; TLC); conditions: TLC of aqueous portion, radioactivity with a polar band
Method: (§1) Samples of bovine albumin (45 mg/ml, 10 ml) and human γ-globulin (6.7 mg/ml. 10 ml) were prepared in phosphate buffer and 0.15 NaCl solution (PBS). A 10 ml sample of PBS was used as control. [^125 I]-IPM (10 μCi) in 100 λ DMSO was added to each sample and incubated for 30 min at 37° C. The samples were repeatedly extracted with ethyl ether. The unbound activity as [^125 I]-IPM was extracted with ethyl ether. The activity remaining in the aqueous portion was considered to be bound with the proteins.

[2] = as above; conditions: bovine albumin 45 mg/ml in PBS, 30 min at 37° C., after ether extraction; read-out: activity remaining in the aqueous portion (bound with protein), albumin (converted)
Method: as §1

[3] = system: IgG; test: Preliminary studies of binding with IgG
[4] = system: platelet proteins; test: Preliminary studies of binding with platelet proteins
[5] = system: red blood cells; test: Blood fractionation (plasma, red and white blood cells) studies; type: in vivo, rat; conditions: rats injected with [^125 I]4
Excerpt: Blood fractionation (plasma, red and white blood cells) studies indicated 88.9% of the blood activity to be associated with red blood cells.

[6] = Tissue distribution of radioactivity after intravenous administration in rats; type: in vivo, female Fischer 344 rats (printed "femal Fischer 344 rats"); conditions: for tissue uptake at 5 min / tissue uptake at 0.5 h / tissue uptake at 1 h: rat, iv; for tissue uptake at 5 min: 5 min after i.v. injection; for tissue uptake at 0.5 h: 30 min after i.v. injection; for tissue uptake at 1 h: 60 min after i.v. injection; for binding with the blood, tissue distribution (in words) / thyroid uptake / thyroid levels of radioactivity (in words): rats; for thyroid uptake / thyroid levels of radioactivity (in words): indicative of in vivo stability of radiolabel toward deiodination
Method: 4-[^125 I]iodoaniline (7.4 mCi sp. act. 700 mCi/mmol) prepared following structure described in Step 1 of Example 1 was coupled with maleic anhydride (9.5 mg) in glacial acetic acid (0.15 ml) at room temperature. The radioiodinated compound, [^125 I]3 isolated by silica gel column chromatography was refluxed with acetic anhydride
The distribution of radiactivity in tissues of femal Fischer 344 rats
(§2) after intravenous administration of [^125 I]4.^a
^a Animals had body weight range of 121-139 gm. Each animal received
3.7 ^o Ci of [^125 I]4 by tail vein injection.
The distribution of radioactivity in tissues of femal Fischer 344 rats
as §2
(75mg) and anhydrous (fused) sodium acetate (12 mg) in benzene (1.0 ml) for 3 h. The product, [^125 I]4 (3.99 mCi, 56 percent radiochemical yield based on [^125 I]3), was isolated by silica gel column chromatography. The radioactive compound [^125 I]4 was identical with an unlabeled sample of 4.

[7] = system: human γ-globulin; test: Binding to human γ-globulin (activity remaining in aqueous portion after ether extraction; TLC); conditions: TLC of aqueous portion, radioactivity with a polar band
Method: as §1

[8] = as above; conditions: gamma-globulin in pbs; human γ-globulin 6.7 mg/ml in PBS, 30 min at 37° C., after ether extraction; read-out: activity remaining in the aqueous portion (bound with protein), γ-globulin (converted)
Method: as §1

[9] = system: albumin; test: Preliminary studies of binding with albumin
[10] = blood, Table 1, blood, read-out: Mean percent injected dose/gm, Blood
[11] = blood, Table 2, blood, read-out: Mean percent injected dose/gm, Blood
[12] = heart, Table 1, heart, read-out: Mean percent injected dose/gm, Heart
[13] = heart, Table 2, heart, read-out: Mean percent injected dose/gm, Heart
[14] = kidneys, Table 1, kidneys, read-out: Mean percent injected dose/gm, Kidneys
[15] = kidneys, Table 2, kidneys, read-out: Mean percent injected dose/gm, Kidneys
[16] = liver, Table 1, liver, read-out: Mean percent injected dose/gm, Liver
[17] = liver, Table 2, liver, read-out: Mean percent injected dose/gm, Liver
[18] = lungs, Table 1, lungs, read-out: Mean percent injected dose/gm, Lungs
[19] = lungs, Table 2, lungs, read-out: Mean percent injected dose/gm, Lungs
[20] = thyroid, Table 1, thyroid, read-out: Mean percent injected dose/gm, Thyroid
[21] = thyroid, Table 2, thyroid, read-out: Mean percent injected dose/gm, Thyroid

O=C1C=CC(=O)N1c1ccc([125I])cc1 [[^125 I]4, N-(p-[^125 I]iodophenyl)maleimide]
binding with albumin by TLC (in words) [1]: significant binding
fraction unbound at 0.5 h [2]: ~0.4
binding with IgG (in words) [3]: appears to bind
binding with platelet proteins (in words) [4]: appears to bind
blood activity associated with red blood cells [5]: 88.9%
tissue uptake at 5 min [6, 10]: 8.84 %ID/g
tissue uptake at 0.5 h [6, 10]: 8.44 %ID/g
tissue uptake at 1 h [6, 10]: 7.56 %ID/g
tissue uptake at 5 min [6, 11]: 57.6 %ID/g
tissue uptake at 0.5 h [6, 11]: 54.1 %ID/g
tissue uptake at 1 h [6, 11]: 48.6 %ID/g
tissue uptake at 5 min [6, 12]: 1.45 %ID/g
tissue uptake at 0.5 h [6, 12]: 1.81 %ID/g
tissue uptake at 1 h [6, 12]: 1.74 %ID/g
tissue uptake at 5 min [6, 13]: 0.61 %ID/g
tissue uptake at 0.5 h [6, 13]: 0.79 %ID/g
tissue uptake at 1 h [6, 13]: 0.74 %ID/g
tissue uptake at 5 min [6, 14]: 2.15 %ID/g
tissue uptake at 0.5 h [6, 14]: 2.12 %ID/g
tissue uptake at 1 h [6, 14]: 2.07 %ID/g
tissue uptake at 5 min [6, 15]: 2.17 %ID/g
tissue uptake at 0.5 h [6, 15]: 2.18 %ID/g
tissue uptake at 1 h [6, 15]: 2.21 %ID/g
tissue uptake at 5 min [6, 16]: 1.9 %ID/g
tissue uptake at 0.5 h [6, 16]: 1.73 %ID/g
tissue uptake at 1 h [6, 16]: 1.5 %ID/g
tissue uptake at 5 min [6, 17]: 10.2 %ID/g
tissue uptake at 0.5 h [6, 17]: 7.85 %ID/g
tissue uptake at 1 h [6, 17]: 7.05 %ID/g
tissue uptake at 5 min [6, 18]: 2.04 %ID/g
tissue uptake at 0.5 h [6, 18]: 2.52 %ID/g
tissue uptake at 1 h [6, 18]: 2.31 %ID/g
tissue uptake at 5 min [6, 19]: 1.76 %ID/g
tissue uptake at 0.5 h [6, 19]: 1.89 %ID/g
tissue uptake at 1 h [6, 19]: 1.74 %ID/g
tissue uptake at 5 min [6, 20]: 13.7 %ID/g
tissue uptake at 0.5 h [6, 20]: 21.7 %ID/g
tissue uptake at 1 h [6, 20]: 20.5 %ID/g
tissue uptake at 5 min [6, 21]: 0.13 %ID/g
tissue uptake at 0.5 h [6, 21]: 0.2 %ID/g
tissue uptake at 1 h [6, 21]: 0.19 %ID/g
binding with the blood, tissue distribution (in words) [6]: high levels of radioactivity were associated with the blood
thyroid uptake / thyroid levels of radioactivity (in words) ([6]; listed as IPM): consistently low
thyroid uptake / thyroid levels of radioactivity (in words) ([6]; listed as maleimide agent): low
binding with the blood, tissue distribution (in words) ([6]; listed as IPM): preferential binding
binding with the blood, tissue distribution (in words) ([6]; listed as maleimide agent): preferential binding with the blood
binding with γ-globulin by TLC (in words) [7]: significant binding
fraction unbound at 0.5 h [8]: ~0.6
binding with albumin (in words) [9]: appears to bind
